Assay results reported in PMC7878295 (Gastroenterology, 2020).
Read-outs that look alike come from different tables or passages of the source. One block for each molecule: values may come before it.

What was measured:
[1] = system: human liver organoid (HLO); assay: Mitochondrial membrane potential; settings: treatment for 24h, multiple doses
[2] = Organoid viability after treatment with training compounds; settings: human, human liver organoids (HLO)
CYP1A2 = CYP1A2 induction in HLO
lipotoxic HLO = assay: Viability in lipotoxic; assay type: cell-based
[3] = system: CYP2C9*2 carrier and non-carrier HLO; assay type: cell-based, human
[4] = system: human liver organoid (HLO); settings: 72 h
[5] = system: human liver organoid (HLO)
BSEP = assay: CLF bile acid transport in HLO; assay type: cell-based, human; settings: normal HLO, viable dosing (100 μM, 200 μM)

SMILES: CCN(CC)C(=O)/C(C#N)=C/c1cc(O)c(O)c([N+](=O)[O-])c1 [Entacapone]
increase in MMP [1]: increases in MMP were not clearly observed
viability at 24 h, 130 µM [2]: 85%
viability at 72 h, 130 µM [2]: 64%

CYP1A2 induction response (CYP1A2): major CYP induction responses in HLO
SMILES: COc1ccc2[nH]c([S+]([O-])Cc3ncc(C)c(OC)c3C)nc2c1 (stereo not drawn) [Omeprazol, Omeprazole]

SMILES: CC(=O)N[C@@H](CS)C(=O)O [NAC, N-acetylcysteine]
rescue of cell viability (lipotoxic HLO; lipotoxic HLO treated with Troglitazone): cell viability was significantly improved

Positive rate of impaired CLF excretion ([3]; CC genotype (CYP2C9 enzyme activity normal) HLO): 17.1 % of positive
Positive rate of impaired CLF excretion ([3]; CT genotype (CYP2C9*2, activity intermediate) HLO): 70.8 % of positive
SMILES: COc1ccccc1Oc1c(NS(=O)(=O)c2ccc(C(C)(C)C)cc2)nc(-c2ncccn2)nc1OCCO [Bosentan]

SMILES: CCc1ccc(CCOc2ccc(CC3SC(=O)NC3=O)cc2)nc1 (stereo not drawn) [Pioglitazone]
effect on viability (lipotoxic HLO; 200 μM, 24h, HLO with/without lipotoxic condition): did not affect viability

SMILES: CC(c1cc2ccccc2s1)N(O)C(N)=O (stereo not drawn) [Zileuton]
concentration at which induced toxicity was detected in cytotoxicity assay [4]: 100 µM

SMILES: COc1ccc2c(c1)c(CC(=O)O)c(C)n2C(=O)c1ccc(Cl)cc1 [Indomethacin]
concentration at which induced toxicity was detected in cytotoxicity assay [4]: 10 µM

SMILES: Cc1c(C)c2c(c(C)c1O)CCC(C)(COc1ccc(CC3SC(=O)NC3=O)cc1)O2 (stereo not drawn) [Troglitazone]
cell viability at 72 hours relative to TOL, DICLO and BOS [5]: significantly lowered cell viability

SMILES: Cc1cc2c(cc1CC(=O)c1sccc1S(=O)(=O)Nc1onc(C)c1Cl)OCO2 [sitaxentan]
CLF transport (BSEP): inhibited CLF transport
